Results on 9 compounds are retold here after patent publication US7718664B2, “Anti-itching agent” (Toray Industries, Inc., priority 2004, dated 2010).

Where a name gives a salt, the structure may show the parent alone.

The test system of one data set is Male ddY mice. Put plainly: Inhibitory effect of scratching behavior induced by Substance-P. Format: in vivo, mouse. As to conditions: test drug sc 30 minutes before intradermal Substance-P, scratching counted for 30 minutes. On the procedure: Male ddY mice were purchased when they were 4 weeks old, and used in the experiments when they became 5 weeks old after acclimation. One day before experiment, each mouse had hair on the rostral back skin clipped with a hair clipper. Each of test drugs was dissolved in 10% DMSO. Either the test drug or vehicle was administered subcutaneously into the rostral back of the mouse, and 30 minutes later, Substance-P (250 nmom/site) dissolved in PBS (phosphate buffered saline) was administered intradermally into the hair-clipped skin at a dose of about 50 μL. Immediately thereafter, each mouse was put into a cage for observation (10*14*22 cm), and the subsequent behavior of each mouse was recorded by an unattended video camera for 30 minutes. The video tape was replayed, and the number of times that the mouse scratched at or around the Substance-P-administered site with its hind limb was counted. In the experiment, each group consisted of 8 mice. In cases where there was a statistically significant difference in the mean number of scratching between the solvent-administered group and the test drug-administered group, the test drug was judged to have an antipruritic effect. The results are shown in terms of the predicted administration dosage at which the number of scratching was reduced to half of that in the solvent-administered group (Table 5).
On to `O=C1c2ccccc2C(=O)N1[C@@H]1CC[C@@]2(O)[C@H]3Cc4ccc(O)c5c4[C@@]2(CCN3CC2CC2)[C@H]1O5` [Compound 1, N-[(17-cyclopropylmethyl)-4,5α-epoxy-3,14-dihydroxy-morphinan-6β-yl]-phthalimide hydrochloric acid salt], for which the “ED50 (predicted administration dosage at which the number of scratching was reduced to half of that in the solvent-administered group)” value is listed as 0.0034 mg/kg, sc.
Take `C=CCN1CC[C@]23c4c5ccc(O)c4O[C@H]2[C@H](N2C(=O)c4ccccc4C2=O)CC[C@@]3(O)[C@H]1C5` [Compound 2, N-[(17-allyl)-4,5α-epoxy-3,14-dihydroxy-morphinan-6β-yl]-phthalimide tartaric acid salt]: the “ED50 (predicted administration dosage at which the number of scratching was reduced to half of that in the solvent-administered group)” value is 0.32 mg/kg, sc.
Turning to `O=C1C2=C(CCCC2)C(=O)N1[C@@H]1CC[C@@]2(O)[C@H]3Cc4ccc(O)c5c4[C@@]2(CCN3CC2CC2)[C@H]1O5` [Compound 3, N-[(17-cyclopropylmethyl)-4,5α-epoxy-3,14-dihydroxy-morphinan-6β-yl]-3,4,5,6-tetrahydrophthalimide tartaric acid salt], the “ED50 (predicted administration dosage at which the number of scratching was reduced to half of that in the solvent-administered group)” value was 0.0033 mg/kg, sc.
On to `O=C1c2ccccc2S(=O)(=O)N1[C@@H]1CC[C@@]2(O)[C@H]3Cc4ccc(O)c5c4[C@@]2(CCN3CC2CC2)[C@H]1O5` [Compound 4, [N-(17-cyclopropylmethyl)-4,5α-epoxy-3,14-dihydroxy-morphinan-6β-yl]-O-sulfonebenzimide tartaric acid salt], for which the “ED50 (predicted administration dosage at which the number of scratching was reduced to half of that in the solvent-administered group)” value was 0.0081 mg/kg, sc.
The same measure, in the same setting: under `O=C1c2ccccc2CN1[C@@H]1CC[C@@]2(O)[C@H]3Cc4ccc(O)c5c4[C@@]2(CCN3CC2CC2)[C@H]1O5` [Compound 5, 2-[(17-cyclopropylmethyl)-4,5α-epoxy-3,14-dihydroxy-morphinan-6β-yl]-2,3-dihydro-isoindole-1-one tartaric acid salt] stands 0.015 mg/kg, sc.
As for `O=C1c2ccccc2C(=O)N1[C@@H]1CC[C@@]2(O)[C@H]3Cc4ccc(O)c5c4[C@@]2(CCN3CC2CC2)[C@H]1O5` [Compound 6, N-[(17-cyclopropylmethyl)-4,5α-epoxy-3,14-dihydroxy-morphinan-6β-yl]-phthalimide], the “ED50 (predicted administration dosage at which the number of scratching was reduced to half of that in the solvent-administered group)” value is 0.0029 mg/kg, sc.
In the case of `CN(C(=O)c1ccccc1)[C@@H]1CC[C@@]2(O)[C@H]3Cc4ccc(O)c5c4[C@@]2(CCN3CC2CC2)[C@H]1O5` [Compound 7, 17-cyclopropylmethyl-4,5α-epoxy-3,14-dihydroxy-6β-(N-methylbenzamido)-morphinan hydrochloric acid salt, reference compound], the “ED50 (predicted administration dosage at which the number of scratching was reduced to half of that in the solvent-administered group)” value is listed as 0.55(Reference Example) mg/kg, sc.

Tested on in another data set: not given
Experiment: not given
As to conditions: in vivo; cited from earlier work.
Regarding `C=C1CC[C@@]2(O)[C@H]3Cc4ccc(O)c5c4[C@@]2(CCN3CC2CC2)[C@H]1O5` [nalmefene], the “effect on severe pruritus in cholestasia with hepathopathy” value is listed as “suppressed”.

Tested on in the next data set: not given
Experiment: not given
The note with it: epidurally or intrathecally administered; cited from earlier work.
With `CN1CC[C@]23c4c5ccc(O)c4O[C@H]2[C@@H](O)C=C[C@H]3[C@H]1C5` [morphine], the induction of pruritus entry is recorded as “induced”.
